“And” between values parts separate entries of the source, which are not always exact repeats. Equal values may be shown once. “Also recorded” adds a separate entry of the source.
How the values were obtained:
[1] = molecular target: T1, LMPTP-B (Low Molecular Weight Protein Tyrosine phosphatase B) (Homo sapiens, UniProt P24666); assay: PhosphataseProfiler screen: LMPTP-B; format: biochemical; details: replicates
T1 construct: purchased Eurofins Pharma Discovery Services UK
Method: (§1) Compound DJ001 was evaluated in a PhosphataseProfiler™ screen at 10 μM and 1 μM (2.7 μg/mL and 0.27 μg/mL) concentrations at Eurofins Pharma Discovery Services UK (Study number UK022-0004033) against a panel of 21 Phosphatases. In each experiment, the respective reference antagonist/agonist was tested directly with DJ001 and the data were compared with historical values determined at Eurofins. DJ001 compound inhibition was calculated as percentage inhibition of the enzymatic activity compared with control.

[2] = molecular target: T2, PTPN22 (Protein Tyrosine Phosphatase Non-Receptor Type 22) (Homo sapiens, UniProt Q9Y2R2); assay: PhosphataseProfiler screen: PTPN22; format: biochemical; details: replicates
T2 construct: purchased Eurofins Pharma Discovery Services UK
Method: as §1

[3] = molecular target: T3, TCPTP (T-Cell Protein-Tyrosine Phosphatase) (Homo sapiens, UniProt P17706); assay: PhosphataseProfiler screen: TCPTP; format: biochemical; details: replicates
T3 construct: purchased Eurofins Pharma Discovery Services UK
Method: as §1

adult C57BL/6 mice = assay: 30 day systemic treatment of non-irradiated mice (blood counts, BM HSC/progenitors, CFCs); format: in vivo, mouse
Method: (§2) Femurs and tibiae were collected from killed C57BL/6 or Ptprs^−/− mice and flushed with IMDM containing 10% FBS and 1% penicillin–streptomycin for BM cells. PB was collected through sub-mandibular puncture. Cells were filtered through a 40 μM strainer and then treated with ACK lysis buffer (Sigma Aldrich) before antibody staining for flow cytometry. For KSL and CD150^+CD48^−KSL cell analysis, BM cells were stained with allophycocyanin (APC)-and Cy7-conjugated anti-mouse Sca1 (BD Biosciences, #560654, 1:100), phycoerythrin (PE)-conjugated anti-mouse c-kit (BD Biosciences, #553355, 1:100), V450 lineage cocktail (BD Biosciences, 561301, 1:10), Alexa Fluor 488-conjugated anti-mouse CD48 (BioLegend, #103414, 1:100), and Alexa Fluor 647-conjugated anti-mouse CD150 (Biolegend, #115918, 1:100) antibodies. For MEP, CMP, GMP, and CLP cell analysis, BM cells were stained with APC-Cy7-conjugated anti-mouse Sca1 (BD Biosciences, #560654, 1:100), PE-conjugated anti-mouse ckit (BD Biosciences, #553355, 1:100), V450 lineage cocktail (BD Biosciences, #561301; 1:10), Alexa Fluor 488-conjugated anti-mouse CD127 (BD Biosciences, #561533, 1:100), Alexa Fluor 647-conjugated anti-mouse CD34 (BD Biosciences, #560230; 1:100), and BV605-conjugated anti-mouse CD16/32 antibodies (BD Biosciences, #563006; 1:100). For donor engraftment analysis in transplanted mice, PB or BM cells were stained with BV605-conjugated anti-mouse CD45.2 (BioLegend, #109841, 1:100), fluorescein isothiocyanate (FITC)-conjugated anti-mouse CD45.1 (BD Biosciences, #553775, 1:100), PE-conjugated anti-mouse Mac-1 (BD Biosciences, #557397, 1:100) and anti-mouse Gr1 (BD Biosciences, #553128, 1:100), V450-conjugated anti-mouse CD3 (BD Biosciences, #561389, 1:100), and APC-Cy7-conjugated anti-mouse B220 (BD Biosciences, 552094, 1:100) antibodies.
(§3) CFC assays (colony-forming unit-granulocyte monocyte), burst-forming unit-erythroid, and CFU-GEMM were performed using MethoCult GF M3434 (Stemcell Technologies)[6]. For all in vitro assays, BM CD34^−KSL cells, KSL cells, and Lin^− cells were cultured in TSF media (IMDM, 10% FBS, 1% pen-strep, 20 ng/mL recombinant mouse TPO, 125 ng/mL recombinant mouse SCF, 50 ng/mL recombinant mouse Flt3 ligand). Recombinant mouse SCF, Flt3 ligand, and TPO were purchased from R&D Systems. For competitive repopulation assays, BM cells were isolated from donor 10–12-week-old female CD45.2^+ mice. Recipient 10-week-old female CD45.1^+ B6.SJL mice were irradiated with 950 cGy TBI using a Cs137 irradiator and donor BM cells were administered via tail vein injection along with a competing dose of 1 × 10^5 non-irradiated host BM cells. Multilineage donor hematopoietic cell engraftment was measured in the PB by flow cytometry.

C57BL/6 mice [4] = assay: Hematopoietic regeneration at day +10 after 750 cGy TBI (PB counts, BM KSL and progenitor cells, CFCs); format: in vivo, mouse; design: Supplementary Figure 4c: BFU-E / Supplementary Figure 5e: CFU-GM / Supplementary Figure 5e: BFU-E / Supplementary Figure 5e: CFU-GEMM: unit not given here
Method: as §2
(§4) For survival studies, 10-week-old female C57BL/6 mice were irradiated with 750 cGy TBI, which is lethal for ~50% of C57BL/6 mice by day + 30 (LD50/30), using a Shepherd Cesium-137 irradiator. Twenty four hours post irradiation, mice were administered daily subcutaneous injections of 5 mg/kg DJ001 or DJ009, or vehicle in a volume of 100 μL for 10 days. DJ001 or DJ009 injections were prepared in PBS, 0.5% Tween 80, and 10% DMSO. Corresponding vehicle injections contained PBS, 10% DMSO, and 0.5% Tween 80. PB complete blood counts were measured using a Hemavet 950 instrument (Drew Scientific) at day + 10 post irradiation. For hematopoietic analysis, BM cells were collected at day + 10 post irradiation. To study whether DJ001 increased survival rates through activation of RAC signaling, the RAC inhibitor, EHT1864 (Selleckchem), was dissolved in PBS and administered intraperitoneally, 40 mg/kg every other day, to 750 cGy-irradiated mice until day + 10.
as §3

C57BL/6 mice [5] = assay: Survival study after 750 cGy TBI; format: in vivo, mouse
Method: as §4

[6] = 30 day treatment of non-irradiated mice, individual mice
[7] = 30 day treatment of non-irradiated mice, replicates
[8] = day +10 after 750 cGy TBI, individual mice
[9] = day +10 after 750 cGy TBI, replicates
[10] = day +10 after 750 cGy, 5 mg/kg s.c. daily
[11] = day +10 after 750 cGy, 5 mg/kg s.c. daily, 5 mg/kg
[12] = 750 cGy TBI, DJ001 daily day +1 to +10, through day +40
[13] = after 750 cGy TBI, individual mice

T3 sequence (P17706 whole entry, species assumed): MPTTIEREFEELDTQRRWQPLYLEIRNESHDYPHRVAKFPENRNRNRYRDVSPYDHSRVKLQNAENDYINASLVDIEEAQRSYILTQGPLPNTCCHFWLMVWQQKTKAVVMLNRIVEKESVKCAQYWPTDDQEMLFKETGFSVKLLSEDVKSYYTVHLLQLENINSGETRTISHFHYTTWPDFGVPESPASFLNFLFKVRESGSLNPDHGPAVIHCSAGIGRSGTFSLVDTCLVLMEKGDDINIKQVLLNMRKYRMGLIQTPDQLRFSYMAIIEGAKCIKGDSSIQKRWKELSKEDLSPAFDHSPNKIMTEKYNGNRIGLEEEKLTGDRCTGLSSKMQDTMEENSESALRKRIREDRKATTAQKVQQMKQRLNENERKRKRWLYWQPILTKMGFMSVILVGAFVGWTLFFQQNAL
T2 sequence (Q9Y2R2 whole entry, species assumed): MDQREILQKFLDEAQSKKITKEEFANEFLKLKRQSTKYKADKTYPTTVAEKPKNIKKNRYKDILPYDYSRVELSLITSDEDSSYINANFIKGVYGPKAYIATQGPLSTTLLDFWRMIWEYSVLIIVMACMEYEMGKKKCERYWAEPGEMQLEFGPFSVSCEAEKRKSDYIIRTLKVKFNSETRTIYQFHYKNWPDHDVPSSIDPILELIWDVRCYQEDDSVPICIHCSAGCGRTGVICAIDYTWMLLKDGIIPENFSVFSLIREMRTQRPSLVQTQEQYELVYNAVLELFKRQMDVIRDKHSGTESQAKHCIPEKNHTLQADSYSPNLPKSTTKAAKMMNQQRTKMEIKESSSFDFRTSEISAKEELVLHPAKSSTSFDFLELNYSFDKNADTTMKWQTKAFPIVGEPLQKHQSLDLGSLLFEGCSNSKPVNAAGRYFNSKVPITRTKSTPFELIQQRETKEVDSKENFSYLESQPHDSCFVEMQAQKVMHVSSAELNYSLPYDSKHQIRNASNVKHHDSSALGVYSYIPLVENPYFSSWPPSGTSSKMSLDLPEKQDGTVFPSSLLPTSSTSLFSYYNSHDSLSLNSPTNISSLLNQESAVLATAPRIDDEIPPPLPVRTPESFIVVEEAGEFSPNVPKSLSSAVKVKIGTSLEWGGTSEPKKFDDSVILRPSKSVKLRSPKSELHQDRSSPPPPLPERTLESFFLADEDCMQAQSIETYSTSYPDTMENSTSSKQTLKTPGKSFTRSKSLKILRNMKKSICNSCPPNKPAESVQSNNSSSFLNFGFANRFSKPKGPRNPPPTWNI
T1 sequence (P24666 1-158 isoform P24666-2, species assumed): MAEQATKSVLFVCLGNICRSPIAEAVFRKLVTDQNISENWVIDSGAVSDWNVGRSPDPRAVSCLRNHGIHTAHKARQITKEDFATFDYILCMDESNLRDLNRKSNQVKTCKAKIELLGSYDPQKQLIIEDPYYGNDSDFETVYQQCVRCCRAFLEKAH

## O=C(/C=C\Nc1cccc([N+](=O)[O-])c1)c1ccccc1 [DJ001, (Z)-3-((3-nitrophenyl)amino)-1-phenylprop-2-en-1-one]
[1]; 0.27 g/mL DJ001
  Supplementary Figure 1: LMPTP-B activity: 96 and 90 and 99
[1]; 2.7 g/mL DJ001
  Supplementary Figure 1: LMPTP-B activity: 99 and 100 and 91
[2]; 2.7 μg/mL DJ001
  Supplementary Figure 1: PTPN22 activity: 94 (2×) and 89
[2]; 0.27 g/mL DJ001
  Supplementary Figure 1: PTPN22 activity: 103 and 99 and 94
[3]; 2.7 μg/mL DJ001
  Supplementary Figure 1: TCPTP activity: 91 and 103 and 88
[3]; 0.27 g/mL DJ001
  Supplementary Figure 1: TCPTP activity: 97 and 96 and 99
Adult C57BL/6 mice; [6]
  Supplementary Figure 3c (center left panel): blood counts: 0.82 and 1.16 and 1.29 and 0.87 and 1.1 and 1.4 and 0.98
  Supplementary Figure 3c (center right panel): blood counts: 4.18 and 4.99 and 3.87 and 3.78 and 3.15 and 4.96 and 3.86
  Supplementary Figure 3c (left panel): blood counts: 5.14 and 6.28 and 5.54 and 5.44 and 4.5 and 5.46 and 7.08
  Supplementary Figure 3c (right panel): blood counts: 982 and 1048 and 1026 and 1004 and 1184 and 1209 and 1110
  Supplementary Figure 3d (center panel): BM HSC/progenitors: 3.5181 and 6.1488 and 9.9568 and 8.316 and 4.0147 and 7.046 and 6.2794
  Supplementary Figure 3d (left panel): BM HSC/progenitors: 1.912 and 2.52 and 3.92 and 3.024 and 2.624 and 2.168 and 3.376
  Supplementary Figure 3d (right panel): BM HSC/progenitors: 3.375 and 1.086 and 2.798 and 5.06 and 3.054 and 1.789 and 4.039
Adult C57BL/6 mice; [7]
  Supplementary Figure 3e: BFU-E: 0
  Supplementary Figure 3e: CFU-GEMM: 0 (3×) and 1 (2×) and 2
  Supplementary Figure 3e: CFU-GM: 10 and 7 and 8 and 6 (2×) and 9
Adult C57BL/6 mice; non-irradiated mice, 5 mg/kg subcutaneously every other day for 30 days, 5 mg/kg
  complete blood counts, BM HSC or progenitor cell content, BM CFCs vs vehicle: no significant changes; also recorded: caused no expansion of HSCs, progenitors, or mature blood counts
C57BL/6 mice [4]; 750 cGy, 5 mg/kg s.c. daily day +1 to +10
  recovery of BM KSL cells, ckit+sca-1−lin− myeloid progenitors and CFCs following TBI: accelerated the recovery
C57BL/6 mice [4]; day +10 after 750 cGy
  percentages of BM MEPs, CMPs, GMPs, or PB myeloid, B-cell or T-cell populations: did not alter the percentages
  percentages of BM common lymphoid progenitors (CLPs): modest increase
C57BL/6 mice [4]; [8]
  Supplementary Figure 4d (center left panel): BM progenitor cells: 0.05534 and 0.6345 and 0.3797 and 0.1366 and 0.1346 and 0.08271 and 0.1205 and 0.1142 and 0.1459 and 0.6791
  Supplementary Figure 4d (center right panel): BM progenitor cells: 0.1315 and 0.5274 and 0.7758 and 0.2631 and 0.4325 and 0.1366 and 0.1603 and 0.4187 and 0.3345 and 1.367
  Supplementary Figure 4d (left panel): BM progenitor cells: 0.1083 and 0.8819 and 0.5478 and 0.2535 and 0.1578 (2×) and 0.2622 and 0.4013 and 0.1995 and 0.6663
  Supplementary Figure 4d (right panel): BM progenitor cells: 0.07453 and 0.07514 and 0.1093 and 0.1068 and 0.06267 and 0.05116 and 0.04956 and 0.2046 and 0.1087
C57BL/6 mice [4]; [9]
  Supplementary Figure 4c: BFU-E: 0 (2×) and 2 and 1 (3×)
  Supplementary Figure 4c: CFU-GEMM: 0 and 2 and 1 (2×) and 3 (2×)
  Supplementary Figure 4c: CFU-GM: 5 (3×) and 7 and 6 and 10
C57BL/6 mice [4]; [10]
  PB lymphocytes compared with vehicle: more than twofold increased
  PB neutrophils compared with vehicle: more than twofold increased
  PB white blood cells compared with vehicle: more than twofold increased
C57BL/6 mice [4]; [11]
  PB WBCs per mouse (Figure 2c left panel): 0.86 and 0.62 and 0.68 and 0.76 and 0.34 and 0.7 and 0.52 and 0.64
  PB lymphocytes (LYMPH) per mouse (Figure 2c right panel): 0.38 and 0.39 and 0.4 and 0.45 and 0.24 and 0.36 and 0.33 and 0.42 and 0.37
  PB neutrophils (NEU) per mouse (Figure 2c center panel): 0.27 and 0.16 and 0.18 and 0.17 and 0.06 and 0.2 and 0.12
C57BL/6 mice [4]; day +10 post 750 cGy
  numbers of BM KSL cells per mouse (Figure 2e center left panel): 15.7 and 9.66 and 15 and 10.6 and 9.42 and 14.8 and 11.8 and 11.5 and 10.7
  numbers of BM c-kit+sca-1− cells per mouse (Figure 2e right panel): 1.33 and 6.87 and 4.4 and 4.05 and 3.27 and 5.18 and 7.29 and 2.89 and 7.28
  percentages of BM KSL cells per mouse (Figure 2e left panel): 0.749% and 0.807% and 1.138% and 0.766% and 0.608% and 0.862% and 0.365% and 1.197% and 0.783%
  percentages of BM c-kit+sca-1− cells per mouse (Figure 2e center right panel): 1.717% and 4.73% and 3.337% and 2.916% and 2.11% and 3.013% and 2.25% and 3.004% and 5.312%
C57BL/6 mice [4]; irradiated mice, day +10
  increase of percentages and numbers of BM KSL stem/progenitor cells compared to irradiated control mice: 2 fold
C57BL/6 mice [5]; [12]
  percent survival: 93%
  survival, mice alive of total (Fig. 2f): 27/29 and 27 of 29
C57BL/6 mice [5]; 750 cGy, 10-day treatment, EHT1864 40 mg/kg i.p. every other day
  survival, mice alive of total (Fig. 3f): 11/15
C57BL/6 mice [5]; Days Post-irradiation 14
  Figure 3f: survival event per mouse (1 = event, 0 = censored): 1
C57BL/6 mice [5]; Days Post-irradiation 17
  Figure 3f: survival event per mouse (1 = event, 0 = censored): 1
C57BL/6 mice [5]; Days Post-irradiation 18
  Figure 3f: survival event per mouse (1 = event, 0 = censored): 1
  survival source data, event code per mouse: 1
C57BL/6 mice [5]; Days Post-irradiation 20
  Figure 3f: survival event per mouse (1 = event, 0 = censored): 1
C57BL/6 mice [5]; Days Post-irradiation 30
  Figure 3f: survival event per mouse (1 = event, 0 = censored): 0
C57BL/6 mice [5]; Days Post-irradiation 40
  survival source data, event code per mouse: 0

## O=C(/C=C\Nc1cc(F)cc(F)c1)c1ccccc1 [DJ009, (Z)-3-((3,5-difluorophenyl)amino)-1-phenylprop-2-en-1-one]
C57BL/6 mice [4]; 750 cGy TBI, 5 mg/kg DJ009 daily for 10 days
  PB WBCs, neutrophils and lymphocytes, BM KSL cells, and CFCs: significant increase
C57BL/6 mice [4]; [13]
  Supplementary Figure 5c (center panel): PB counts: 0.08 and 0.19 and 0.29 and 0.1 and 0.39 and 0.13 and 0.2
  Supplementary Figure 5c (left panel): PB counts: 1.4 and 0.72 and 1.76 and 0.4 and 1.62 and 0.52 and 0.94
  Supplementary Figure 5c (right panel): PB counts: 1.27 and 0.4 and 1.32 and 0.26 and 0.96 and 0.29 and 0.63
  Supplementary Figure 5d (center panel): BM cells: 4.83 and 5.26 and 6.06 and 14.68 and 8.28 and 9.38 and 7.6
  Supplementary Figure 5d (left panel): BM cells: 1.079 and 0.621 and 0.841 and 0.709 and 1.581 and 1.301 and 0.94
C57BL/6 mice [4]; after 750 cGy TBI, replicates
  Supplementary Figure 5e: BFU-E: 0 (6×) and 1 (2×) and 2
  Supplementary Figure 5e: CFU-GEMM: 1 and 0 (3×) and 3 and 2 (3×) and 4
  Supplementary Figure 5e: CFU-GM: 5 and 4 and 2 and 6 and 8 and 7 and 19 and 18 and 15
C57BL/6 mice [5]; 750 cGy TBI, 5 mg/kg daily for 10 days
  survival of irradiated C57BL/6 mice (in words): significantly increased survival
C57BL/6 mice [5]; 750 cGy, 5 mg/kg DJ009 daily for 10 d
  survival, mice alive of total (Supplementary Fig. 5f): 24/24
C57BL/6 mice [5]; Days post-radiation 30
  Supplementary Figure 5f: survival event per mouse (1 = event, 0 = censored): 0
